Consider 30 substances from ChEMBL document CHEMBL5316289, “Structure-Based Rational Design of Small α-Helical Peptides with Broad-Spectrum Activity against Multidrug-Resistant Pathogens” (J Med Chem, 2023).

The MIC is the lowest concentration found to suppress growth.

Values joined by “and” are separate entries in the source; they are usually repeats but may differ in a detail not shown here. Identical values can stand only once.

Type in all cases: functional
Assay [1] has as its system Staphylococcus aureus. Briefly: Antibacterial activity against methicillin resistant Staphylococcus aureus ATCC BAA 1556 assessed as inhibition of bacterial growth incubated for 24 hrs by CLSI based broth microdilution method. In general terms: In broth dilution the organism is exposed to a series of concentrations in liquid medium.
The test system of the next assay is Escherichia coli. Briefly: Antibacterial activity against Escherichia coli ATCC 25922 assessed as inhibition of bacterial growth incubated for 24 hrs by CLSI based broth microdilution method.
Another assay concerns Klebsiella pneumoniae. Briefly: Antibacterial activity against Klebsiella pneumoniae ATCC BAA 1705 assessed as inhibition of bacterial growth incubated for 24 hrs by CLSI based broth microdilution method.
Assay [2] deals with Staphylococcus aureus. Briefly: Antibacterial activity against Staphylococcus aureus ATCC 29213 assessed as inhibition of bacterial growth incubated for 24 hrs by CLSI based broth microdilution method.
Another assay deals with Pseudomonas aeruginosa. Briefly: Antibacterial activity against Pseudomonas aeruginosa […] assessed as inhibition of bacterial growth incubated for 24 hrs by CLSI based broth microdilution method.

As for H-AWWRRAWRR-NH2, the MIC is > 100 µg/mL and > 74.5 µM in the assay on Staphylococcus aureus [1]; > 100 µg/mL and > 74.5 µM in the assay on Escherichia coli; above 100 µg/mL in the assay on Klebsiella pneumoniae (read-out: MIC); > 100 µg/mL and > 74.5 µM in the assay on Staphylococcus aureus [2]; above 100 µg/mL in the assay on Pseudomonas aeruginosa.

For the substance H-RWARRWWR-NH2, the MIC is > 100 µg/mL and > 78.7 µM in the assay on Staphylococcus aureus [1]; > 100 µg/mL and > 78.7 µM in the assay with Escherichia coli; above 100 µg/mL in the assay with Klebsiella pneumoniae (read-out: MIC); > 100 µg/mL and > 78.7 µM in the assay with Staphylococcus aureus [2]; above 100 µg/mL in the assay with Pseudomonas aeruginosa.

As to H-RWARRWARWWRR-NH2, the MIC is > 100 µg/mL and > 54.3 µM in the assay with Escherichia coli; above 100 µg/mL in the assay on Klebsiella pneumoniae (read-out: MIC); 100 µg/mL in the assay on Pseudomonas aeruginosa.

Take H-RWWRAAWRR-NH2: the MIC in the assay with Staphylococcus aureus [1] is > 100 µg/mL and > 74.5 µM; in the assay with Escherichia coli it was > 100 µg/mL and > 74.5 µM; in the assay with Klebsiella pneumoniae (read-out: MIC) it was above 100 µg/mL; in the assay with Staphylococcus aureus [2], > 100 µg/mL and > 74.5 µM; in the assay on Pseudomonas aeruginosa, above 100 µg/mL.

In the case of H-RWWRRAWAR-NH2, the MIC is > 100 µg/mL and > 74.5 µM in the assay on Staphylococcus aureus [1]; > 100 µg/mL and > 74.5 µM in the assay on Escherichia coli; above 100 µg/mL with Klebsiella pneumoniae (read-out: MIC); > 100 µg/mL and > 74.5 µM in the assay with Staphylococcus aureus [2]; above 100 µg/mL in the assay on Pseudomonas aeruginosa.

For the substance H-RWWRRAWRA-NH2, the MIC in the assay on Staphylococcus aureus [1] was > 100 µg/mL and > 74.5 µM; in the assay on Escherichia coli, > 100 µg/mL and > 74.5 µM; with Klebsiella pneumoniae (read-out: MIC), above 100 µg/mL; with Staphylococcus aureus [2] it was > 100 µg/mL and > 74.5 µM; with Pseudomonas aeruginosa it was above 100 µg/mL.

Consider Ac-RWIRRWIRWWR-NH2, for which the minimum inhibitory concentration (MIC) in the assay on Escherichia coli and in the assay on Klebsiella pneumoniae (read-out: MIC) was 100 µg/mL throughout.

Consider Ac-KWAKKWAKWWKK-NH2, for which the MIC with Staphylococcus aureus [1], in the assay with Escherichia coli, in the assay on Klebsiella pneumoniae (read-out: MIC) and in the assay on Pseudomonas aeruginosa was 100 µg/mL each time.

H-RAWRRAWRAW-NH2: the MIC in the assay with Staphylococcus aureus [1] was > 100 µg/mL and > 70.7 µM; in the assay with Escherichia coli, > 100 µg/mL and > 70.7 µM; with Klebsiella pneumoniae (read-out: MIC), above 100 µg/mL; in the assay on Staphylococcus aureus [2], > 100 µg/mL and > 70.7 µM; with Pseudomonas aeruginosa it was above 100 µg/mL.

Take H-RAARRWARWWR-NH2: the MIC in the assay on Staphylococcus aureus [1] was 100 µg/mL; in the assay on Escherichia coli it was > 100 µg/mL and > 63.7 µM; in the assay on Klebsiella pneumoniae (read-out: MIC) it was above 100 µg/mL; in the assay on Staphylococcus aureus [2] it was 100 µg/mL; in the assay on Pseudomonas aeruginosa, above 100 µg/mL.

On to H-RWARRAWRAW-NH2, for which the MIC with Staphylococcus aureus [1] was > 100 µg/mL and > 70.7 µM; in the assay with Escherichia coli, > 100 µg/mL and > 70.7 µM; with Klebsiella pneumoniae (read-out: MIC) it was above 100 µg/mL; with Staphylococcus aureus [2], > 100 µg/mL and > 70.7 µM; in the assay with Pseudomonas aeruginosa, above 100 µg/mL.

In the case of H-AAWRRWWRRA-NH2, the MIC was > 100 µg/mL and > 70.7 µM in the assay on Staphylococcus aureus [1]; > 100 µg/mL and > 70.7 µM in the assay with Escherichia coli; above 100 µg/mL with Klebsiella pneumoniae (read-out: MIC); > 100 µg/mL and > 70.7 µM with Staphylococcus aureus [2]; above 100 µg/mL in the assay on Pseudomonas aeruginosa.

As to H-RRWWRRW-NH2, the MIC in the assay with Staphylococcus aureus [1] was 100 µg/mL; in the assay on Escherichia coli, > 100 µg/mL and > 83.3 µM; in the assay on Klebsiella pneumoniae (read-out: MIC), above 100 µg/mL; in the assay on Pseudomonas aeruginosa it was above 100 µg/mL.

As to H-WRRWARRW-NH2, the MIC is > 100 µg/mL and > 78.7 µM with Staphylococcus aureus [1]; > 100 µg/mL and > 78.7 µM in the assay with Escherichia coli; above 100 µg/mL with Klebsiella pneumoniae (read-out: MIC); > 100 µg/mL and > 78.7 µM with Staphylococcus aureus [2]; above 100 µg/mL in the assay with Pseudomonas aeruginosa.

Consider H-WRRWWRR-NH2, for which the MIC with Staphylococcus aureus [1] is 100 µg/mL; in the assay on Escherichia coli it was > 100 µg/mL and > 83.3 µM; with Klebsiella pneumoniae (read-out: MIC), above 100 µg/mL; in the assay on Staphylococcus aureus [2], 100 µg/mL; in the assay with Pseudomonas aeruginosa, above 100 µg/mL.

H-RRWRRWW-NH2: the MIC in the assay on Staphylococcus aureus [1] is 100 µg/mL; in the assay with Escherichia coli it was > 100 µg/mL and > 83.3 µM; with Klebsiella pneumoniae (read-out: MIC) it was above 100 µg/mL; in the assay with Staphylococcus aureus [2] it was 100 µg/mL; in the assay with Pseudomonas aeruginosa, above 100 µg/mL.

In the case of H-KWAKKWAKWWKK-NH2, the MIC in the assay with Staphylococcus aureus [1] is 100 µg/mL; in the assay with Escherichia coli, > 100 µg/mL and > 59.8 µM; in the assay with Klebsiella pneumoniae (read-out: MIC) it was above 100 µg/mL; with Staphylococcus aureus [2], 100 µg/mL; with Pseudomonas aeruginosa, above 100 µg/mL.

H-RWWRRAWRAA-NH2: the MIC was > 100 µg/mL and > 70.7 µM with Staphylococcus aureus [1]; > 100 µg/mL and > 70.7 µM in the assay with Escherichia coli; above 100 µg/mL in the assay on Klebsiella pneumoniae (read-out: MIC); > 100 µg/mL and > 70.7 µM in the assay with Staphylococcus aureus [2]; above 100 µg/mL in the assay with Pseudomonas aeruginosa.

As for H-RAWRRWWARA-NH2, the MIC in the assay on Staphylococcus aureus [1] is > 100 µg/mL and > 70.7 µM; in the assay with Escherichia coli, > 100 µg/mL and > 70.7 µM; in the assay with Klebsiella pneumoniae (read-out: MIC) it was above 100 µg/mL; with Staphylococcus aureus [2] it was > 100 µg/mL and > 70.7 µM; in the assay with Pseudomonas aeruginosa, above 100 µg/mL.

Regarding H-RWRRWWR-NH2, the MIC is 100 µg/mL with Staphylococcus aureus [1]; > 100 µg/mL and > 83.3 µM in the assay with Escherichia coli; above 100 µg/mL in the assay with Klebsiella pneumoniae (read-out: MIC); 100 µg/mL in the assay on Staphylococcus aureus [2]; above 100 µg/mL in the assay on Pseudomonas aeruginosa.

On to H-RAWRRWWRA-NH2, for which the MIC in the assay with Staphylococcus aureus [1] is > 100 µg/mL and > 74.5 µM; in the assay on Escherichia coli it was > 100 µg/mL and > 74.5 µM; in the assay on Klebsiella pneumoniae (read-out: MIC), above 100 µg/mL; with Staphylococcus aureus [2], > 100 µg/mL and > 74.5 µM; in the assay with Pseudomonas aeruginosa, above 100 µg/mL.

Turning to H-RWARRWARWWR-NH2, the MIC with Staphylococcus aureus [1] is 100 µg/mL; with Escherichia coli it was 100 µg/mL; in the assay with Klebsiella pneumoniae (read-out: MIC) it was above 100 µg/mL; in the assay with Pseudomonas aeruginosa it was 100 µg/mL.

As for H-RWWRRAWR-NH2, the MIC with Staphylococcus aureus [1] is > 100 µg/mL and > 78.7 µM; in the assay on Escherichia coli, > 100 µg/mL and > 78.7 µM; in the assay on Klebsiella pneumoniae (read-out: MIC) it was above 100 µg/mL; with Staphylococcus aureus [2], > 100 µg/mL and > 78.7 µM; in the assay with Pseudomonas aeruginosa it was above 100 µg/mL.

As for H-RWIRRWIRWWR-NH2, the minimal inhibitory concentration (MIC) in the assay on Escherichia coli worked out at 100 µg/mL; in the assay with Klebsiella pneumoniae, 56.5 µM; in the assay with Klebsiella pneumoniae (read-out: MIC), 100 µg/mL.

As for H-ARRWWRRW-NH2, the MIC with Staphylococcus aureus [1] is 100 µg/mL and > 78.7 µM; with Escherichia coli, > 100 µg/mL and > 78.7 µM; with Klebsiella pneumoniae (read-out: MIC), above 100 µg/mL; in the assay on Staphylococcus aureus [2], 100 µg/mL; in the assay with Pseudomonas aeruginosa, above 100 µg/mL.

With H-RWARRWWRA-NH2, the MIC in the assay on Staphylococcus aureus [1] was > 100 µg/mL and > 74.5 µM; in the assay with Escherichia coli, > 100 µg/mL and > 74.5 µM; in the assay on Klebsiella pneumoniae (read-out: MIC), above 100 µg/mL; with Staphylococcus aureus [2], > 100 µg/mL and > 74.5 µM; with Pseudomonas aeruginosa, above 100 µg/mL.

Regarding H-RAWRRWWRAA-NH2, the MIC in the assay on Staphylococcus aureus [1] is > 100 µg/mL and > 70.7 µM; in the assay on Escherichia coli, > 100 µg/mL and > 70.7 µM; in the assay with Klebsiella pneumoniae (read-out: MIC), above 100 µg/mL; in the assay on Staphylococcus aureus [2], > 100 µg/mL and > 70.7 µM; with Pseudomonas aeruginosa, above 100 µg/mL.

For the substance H-RWWRRWAR-NH2, the MIC was > 100 µg/mL and > 78.7 µM in the assay on Staphylococcus aureus [1]; > 100 µg/mL and > 78.7 µM in the assay with Escherichia coli; above 100 µg/mL in the assay with Klebsiella pneumoniae (read-out: MIC); > 100 µg/mL and > 78.7 µM in the assay with Staphylococcus aureus [2]; above 100 µg/mL with Pseudomonas aeruginosa.

On to H-RWWRRWR-NH2, for which the minimum inhibitory concentration (MIC) with Staphylococcus aureus [1] is 100 µg/mL; with Escherichia coli, > 100 µg/mL and > 83.3 µM; in the assay with Klebsiella pneumoniae (read-out: MIC) it was above 100 µg/mL; in the assay on Staphylococcus aureus [2], 100 µg/mL; in the assay with Pseudomonas aeruginosa, above 100 µg/mL.

For the substance H-RAWRAWWRRA-NH2, the MIC in the assay on Staphylococcus aureus [1] is > 100 µg/mL and > 70.7 µM; in the assay on Escherichia coli, > 100 µg/mL and > 70.7 µM; in the assay with Klebsiella pneumoniae (read-out: MIC), above 100 µg/mL; in the assay with Staphylococcus aureus [2], > 100 µg/mL and > 70.7 µM; in the assay on Pseudomonas aeruginosa, above 100 µg/mL.
